{"source": "patent US12109196B2", "about": "“Non-sedating dexmedetomidine treatment regimens” (BioXcel Therapeutics, Inc., priority 2019, dated 2024)", "key": {"[1]": {"description": "(§1) Patients 5, 7, 8 and 9 received placebo.\nThe level of dexmedetomidine in the plasma of patients was also measured over the time of infusion."}, "[2]": {"test_system": "acute agitation associated with schizophrenia, schizoaffective disorder or schizophreniform disorder", "conditions": "2 hours post-dose", "experimental": "PEC comprised 5 items associated with agitation: poor impulse control, tension, hostility, uncooperativeness, and excitement; each scored 1 (minimum) to 7 (maximum). The PEC, the sum of these 5 subscales, thus ranging from 5 to 35.\nEfficacy Analyses: The primary efficacy endpoint of the study was the absolute change from baseline in PEC score at 120 mins (2 hours). The intent to treat population (ITT) was analyzed and consisted of all patients who took any study medication and who had both baseline and at least 1 efficacy assessment after dosing. Analyses were conducted using a restricted maximum likelihood repeated measures mixed model on change from baseline values with baseline as a covariate and timepoint, and its interaction with treatment groups as repeated measures using an unstructured covariance structure. Responder comparisons were made via Fisher's exact test.\nThere were 5 dose cohorts (20 μg, 60 μg, 80 μg, 120 μg and 180 μg) with 18 active patients (total of 90 patients) and 9 placebo patients (total of 45 patients) in each cohort. Active patients in each of the 5 dose cohorts were compared to placebo patients from all 5 cohorts (pooled placebo group)."}, "[3]": {"test_system": "agitation in subjects suffering from schizophrenia", "source_text": "Another Key Objective of the study was to determine the reduction in the level of agitation, as determined by their PEC score, at the doses to achieve a RASS of −1.\nas §1\nCGI-I focused on the severity of agitation rather than the severity of the illness. • (4) After the infusion was stopped, the participants were judged for the suitability for discharge by the principal investigator or designee as witnessed by a return to their baseline level of alertness and awareness with no impairment in balance, gait, and reaction time as determined by the principal investigator or designee. Results (A) Efficacy Study RASS (Richmond Agitation-Sedation Scale)"}}, "note": "Structures can show the parent of a compound that is named as a salt. Where two headings read alike, the source gives them in different places."}
{"smiles": "Cc1cccc([C@H](C)c2cnc[nH]2)c1C", "note": "[dexmedetomidine hydrochloride, (+) 4-(S)-[1-(2,3-dimethylphenyl)ethyl]-1H-imidazole]", "values": [{"measurement": "Plasma level concentration", "setting": "[1]; Patient 1 (Treatment), 0 Mins", "result": "BLQ"}, {"measurement": "Plasma level concentration", "setting": "[1]; Patient 1 (Treatment), 15 Mins", "result": 0.02245, "unit": "ng/mL"}, {"measurement": "Plasma level concentration", "setting": "[1]; Patient 1 (Treatment), 30 Mins", "result": 0.01472, "unit": "ng/mL"}, {"measurement": "Plasma level concentration", "setting": "[1]; Patient 2 (Treatment), 0 Mins", "result": "BLQ"}, {"measurement": "Plasma level concentration", "setting": "[1]; Patient 2 (Treatment), 30 Mins", "result": "BLQ"}, {"measurement": "Plasma level concentration", "setting": "[1]; Patient 3 (Treatment), 30 Mins", "result": "BLQ"}, {"measurement": "Plasma level concentration", "setting": "[1]; Patient 3 (Treatment), 45 Mins", "result": "BLQ"}, {"measurement": "Plasma level concentration", "setting": "[1]; Patient 4 (Treatment), 0 Mins", "result": "BLQ"}, {"measurement": "Plasma level concentration", "setting": "[1]; Patient 4 (Treatment), 15 Mins", "result": "BLQ"}, {"measurement": "Plasma level concentration", "setting": "[1]; Patient 4 (Treatment), 30 Mins", "result": "BLQ"}, {"measurement": "Plasma level concentration", "setting": "[1]; Patient 4 (Treatment), 45 Mins", "result": "BLQ"}, {"measurement": "Plasma level concentration", "setting": "[1]; Patient 4 (Treatment), 60 Mins", "result": "BLQ"}, {"measurement": "Plasma level concentration", "setting": "[1]; Patient 4 (Treatment), 75 Mins", "result": "BLQ"}, {"measurement": "Plasma level concentration", "setting": "[1]; Patient 4 (Treatment), 90 Mins", "result": 0.0443, "unit": "ng/mL"}, {"measurement": "Plasma level concentration", "setting": "[1]; Patient 11 (Treatment), 0 Mins", "result": "BLQ"}, {"measurement": "Plasma level concentration", "setting": "[1]; Patient 11 (Treatment), 15 Mins", "result": 0.04101, "unit": "ng/mL"}, {"measurement": "Plasma level concentration", "setting": "[1]; Patient 11 (Treatment), 30 Mins", "result": 0.06291, "unit": "ng/mL"}, {"measurement": "Plasma level concentration", "setting": "[1]; Patient 11 (Treatment), 45 Mins", "result": 0.12407, "unit": "ng/mL"}, {"measurement": "Plasma level concentration", "setting": "[1]; Patient 11 (Treatment), 60 Mins", "result": 0.15047, "unit": "ng/mL"}, {"measurement": "Plasma level concentration", "setting": "[1]; Patient 12 (Treatment), 0 Mins", "result": "BLQ"}, {"measurement": "Plasma level concentration", "setting": "[1]; Patient 12 (Treatment), 15 Mins", "result": "BLQ"}, {"measurement": "Plasma level concentration", "setting": "[1]; Patient 12 (Treatment), 30 Mins", "result": 0.04487, "unit": "ng/mL"}, {"measurement": "Plasma level concentration", "setting": "[1]; Patient 12 (Treatment), 45 Mins", "result": 0.05051, "unit": "ng/mL"}, {"measurement": "Plasma level concentration", "setting": "[1]; Patient 12 (Treatment), 60 Mins", "result": 0.1086, "unit": "ng/mL"}, {"measurement": "Plasma level concentration", "setting": "[1]; Patient 12 (Treatment), 75 Mins", "result": 0.15854, "unit": "ng/mL"}, {"measurement": "Plasma level concentration", "setting": "[1]; Patient 12 (Treatment), 90 Mins", "result": 0.23783, "unit": "ng/mL"}, {"measurement": "Plasma level concentration", "setting": "[1]; Patient 12 (Treatment), 105 Mins", "result": 0.2673, "unit": "ng/mL"}, {"measurement": "Plasma level concentration", "setting": "[1]; Patient 14 (Treatment), 0 Mins", "result": "BLQ"}, {"measurement": "Plasma level concentration", "setting": "[1]; Patient 14 (Treatment), 15 Mins", "result": "BLQ"}, {"measurement": "Plasma level concentration", "setting": "[1]; Patient 14 (Treatment), 30 Mins", "result": 0.05266, "unit": "ng/mL"}, {"measurement": "Plasma level concentration", "setting": "[1]; Patient 14 (Treatment), 45 Mins", "result": 0.04653, "unit": "ng/mL"}, {"measurement": "Plasma level concentration", "setting": "[1]; Patient 14 (Treatment), 60 Mins", "result": 0.4063, "unit": "ng/mL"}, {"measurement": "Plasma level concentration", "setting": "[1]; Patient 16 (Treatment), 0 Mins", "result": "BLQ"}, {"measurement": "Plasma level concentration", "setting": "[1]; Patient 16 (Treatment), 15 Mins", "result": 0.00256, "unit": "ng/mL"}, {"measurement": "Plasma level concentration", "setting": "[1]; Patient 16 (Treatment), 30 Mins", "result": 0.01559, "unit": "ng/mL"}, {"measurement": "Plasma level concentration", "setting": "[1]; Patient 16 (Treatment), 45 Mins", "result": 0.04117, "unit": "ng/mL"}, {"measurement": "Plasma level concentration", "setting": "[1]; Patient 16 (Treatment), 60 Mins", "result": 0.06788, "unit": "ng/mL"}, {"measurement": "Plasma level concentration", "setting": "[1]; Patient 16 (Treatment), 75 Mins", "result": 0.07226, "unit": "ng/mL"}, {"measurement": "Plasma level concentration", "setting": "[1]; Patient 17 (Treatment), 0 Mins", "result": "BLQ"}, {"measurement": "Plasma level concentration", "setting": "[1]; Patient 17 (Treatment), 15 Mins", "result": 0.01587, "unit": "ng/mL"}, {"measurement": "Plasma level concentration", "setting": "[1]; Patient 17 (Treatment), 30 Mins", "result": "BLQ"}, {"measurement": "Plasma level concentration", "setting": "[1]; Patient 17 (Treatment), 45 Mins", "result": 0.03993, "unit": "ng/mL"}, {"measurement": "Plasma level concentration", "setting": "[1]; Patient 18 (Treatment), 0 Mins", "result": "BLQ"}, {"measurement": "Plasma level concentration", "setting": "[1]; Patient 18 (Treatment), 15 Mins", "result": 0.04836, "unit": "ng/mL"}, {"measurement": "Plasma level concentration", "setting": "[1]; Patient 18 (Treatment), 30 Mins", "result": 0.05453, "unit": "ng/mL"}, {"measurement": "PANSS-PEC Total Score, Change from baseline, mean (SD)", "setting": "[2]; 80 μg", "result": "−7.3"}, {"measurement": "PANSS-PEC Total Score, Change from baseline, mean (SD)", "setting": "[2]; 120 μg", "result": "−9.2"}, {"measurement": "PANSS-PEC Total Score, Change from baseline, mean (SD)", "setting": "[2]; 180 μg", "result": "−10.8"}, {"measurement": "Patients (out of 10) in the treatment arm with agitation reduced to a PEC score of 7 or below", "setting": "[3]; IV infusion", "result": 9}, {"measurement": "Subjects (of 10) with >=50% reduction in PEC score", "setting": "[3]; IV route", "result": 7}, {"measurement": "PEC value after infusion start", "setting": "[3]; Patient 1 (treatment arm), 0 Mins", "result": 9}, {"measurement": "PEC value after infusion start", "setting": "[3]; Patient 1 (treatment arm), 15 Mins", "result": 5}, {"measurement": "PEC value after infusion start", "setting": "[3]; Patient 2 (treatment arm), 0 Mins", "result": 16}, {"measurement": "PEC value after infusion start", "setting": "[3]; Patient 2 (treatment arm), 15 Mins", "result": 13}, {"measurement": "PEC value after infusion start", "setting": "[3]; Patient 2 (treatment arm), 30 Mins", "result": 12}, {"measurement": "PEC value after infusion start", "setting": "[3]; Patient 2 (treatment arm), 45 Mins", "result": 11}, {"measurement": "PEC value after infusion start", "setting": "[3]; Patient 2 (treatment arm), 60 Mins", "result": 9}, {"measurement": "PEC value after infusion start", "setting": "[3]; Patient 2 (treatment arm), 75 Mins", "result": 7}, {"measurement": "PEC value after infusion start", "setting": "[3]; Patient 3 (treatment arm), 0 Mins", "result": 12}, {"measurement": "PEC value after infusion start", "setting": "[3]; Patient 3 (treatment arm), 15 Mins", "result": 12}, {"measurement": "PEC value after infusion start", "setting": "[3]; Patient 3 (treatment arm), 30 Mins", "result": 10}, {"measurement": "PEC value after infusion start", "setting": "[3]; Patient 3 (treatment arm), 45 Mins", "result": 7}, {"measurement": "PEC value after infusion start", "setting": "[3]; Patient 3 (treatment arm), 60 Mins", "result": 6}, {"measurement": "PEC value after infusion start", "setting": "[3]; Patient 4 (treatment arm), 0 Mins", "result": 9}, {"measurement": "PEC value after infusion start", "setting": "[3]; Patient 4 (treatment arm), 15 Mins", "result": 9}, {"measurement": "PEC value after infusion start", "setting": "[3]; Patient 4 (treatment arm), 30 Mins", "result": 8}, {"measurement": "PEC value after infusion start", "setting": "[3]; Patient 4 (treatment arm), 45 Mins", "result": 8}, {"measurement": "PEC value after infusion start", "setting": "[3]; Patient 4 (treatment arm), 60 Mins", "result": 7}, {"measurement": "PEC value after infusion start", "setting": "[3]; Patient 4 (treatment arm), 75 Mins", "result": 7}, {"measurement": "PEC value after infusion start", "setting": "[3]; Patient 4 (treatment arm), 90 Mins", "result": 7}, {"measurement": "PEC value after infusion start", "setting": "[3]; Patient 4 (treatment arm), 105 Mins", "result": 7}]}
